# Key:
# [1] = target: T1, HpLCYE (Haematococcus lacustris, UniProt A0A0K1HSD1); test: E. coli complementation, UPLC product profile; format: cell-based; conditions: 30 then 25 °C
# T1 construct: full ORF, 575 aa, codon-optimised, expressed from pACCRT-EIB plasmid in carotenoid-accumulating E. coli DH5alpha; no tag told
# T1 sequence (A0A0K1HSD1 1-575): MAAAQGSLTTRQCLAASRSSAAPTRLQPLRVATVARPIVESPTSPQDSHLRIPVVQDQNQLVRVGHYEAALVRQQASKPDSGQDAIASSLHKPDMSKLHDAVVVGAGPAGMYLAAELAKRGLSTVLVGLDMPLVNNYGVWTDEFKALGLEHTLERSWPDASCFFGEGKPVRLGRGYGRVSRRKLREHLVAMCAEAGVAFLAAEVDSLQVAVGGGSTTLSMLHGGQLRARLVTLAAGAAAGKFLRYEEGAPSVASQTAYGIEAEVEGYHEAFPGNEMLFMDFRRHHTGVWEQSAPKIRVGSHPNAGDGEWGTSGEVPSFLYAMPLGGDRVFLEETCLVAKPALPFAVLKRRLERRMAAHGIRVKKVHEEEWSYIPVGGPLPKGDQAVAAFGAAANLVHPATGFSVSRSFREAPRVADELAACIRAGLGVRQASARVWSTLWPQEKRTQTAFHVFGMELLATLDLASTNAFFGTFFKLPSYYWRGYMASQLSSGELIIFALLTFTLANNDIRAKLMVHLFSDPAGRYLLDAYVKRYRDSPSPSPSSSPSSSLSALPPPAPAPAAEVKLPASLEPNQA
# [2] = target: T2, HpLCYB (Haematococcus lacustris, UniProt A0A1S6KDX2); test: E. coli complementation, UPLC product profile; format: cell-based; conditions: lycopene-accumulating E. coli DH5alpha (pACCRT-EIB-B), 30 then 25 °C; product beta-carotene
# T2 construct: full ORF, 568 aa, expressed from pACCRT-EIB plasmid in carotenoid-accumulating E. coli DH5alpha; no tag told
# T2 sequence (A0A1S6KDX2 1-568): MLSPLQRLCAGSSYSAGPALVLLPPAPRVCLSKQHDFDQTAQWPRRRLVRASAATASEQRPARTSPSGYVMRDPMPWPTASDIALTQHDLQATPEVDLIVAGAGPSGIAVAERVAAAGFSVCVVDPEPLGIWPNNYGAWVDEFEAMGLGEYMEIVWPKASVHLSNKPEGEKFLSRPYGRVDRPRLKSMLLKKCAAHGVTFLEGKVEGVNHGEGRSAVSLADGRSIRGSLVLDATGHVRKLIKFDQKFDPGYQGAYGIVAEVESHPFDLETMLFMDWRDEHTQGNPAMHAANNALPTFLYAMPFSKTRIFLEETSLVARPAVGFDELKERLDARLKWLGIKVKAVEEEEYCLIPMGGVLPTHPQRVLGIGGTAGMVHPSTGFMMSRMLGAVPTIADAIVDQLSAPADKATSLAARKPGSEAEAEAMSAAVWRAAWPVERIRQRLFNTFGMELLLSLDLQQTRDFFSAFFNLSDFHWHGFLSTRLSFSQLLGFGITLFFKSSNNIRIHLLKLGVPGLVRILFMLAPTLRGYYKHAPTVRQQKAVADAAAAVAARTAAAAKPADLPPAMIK
# [3] = target: HpLCYB (purified) (Haematococcus lacustris, UniProt A0A1S6KDX2); test: in vitro cyclase assay, UPLC; format: biochemical; conditions: 50 mM gamma-carotene as printed, 0.1 M Tris-HCl pH 7.0, 10% glycerol, 5 mM DTT, 1 mM EDTA, 30 °C, 1 h; product beta-carotene
structure (smiles),measurement,setting,value
CC(C)=CCC/C(C)=C/C=C/C(C)=C/C=C/C(C)=C/C=C/C=C(C)/C=C/C=C(C)/C=C/C=C(\C)CCC=C(C)C [lycopene],"E. coli complementation, UPLC product profile","[1]; lycopene-accumulating E. coli DH5alpha (pACCRT-EIB-E), product delta-carotene",HpLCYE cyclized only one end of lycopene to synthesize δ-carotene
same,"E. coli complementation, UPLC product profile",[2],HpLCYB could cyclize both ends of lycopene to form β-carotene
CC(C)=CCC/C(C)=C/C=C/C(C)=C/C=C/C(C)=C/C=C/C=C(C)/C=C/C=C(\C)CC/C=C(\C)CCC=C(C)C [neurosporene],"E. coli complementation, UPLC product profile","[1]; neurosporene-accumulating E. coli DH5alpha (pACCRT-EIBneurE), product alpha-zeacarotene","neurosporene produced by pACCRT-EIBneur was probably transformed into α-, and β-zeacarotene, respectively"
CC(C)=CCC/C(C)=C/C=C/C(C)=C/C=C/C(C)=C/C=C/C=C(C)/C=C/C=C(C)/C=C/C1=C(C)CCCC1(C)C [γ-carotene],"in vitro cyclase assay, UPLC",[3],HpLCYB further cyclized γ-carotene to form β-carotene

# Source: paper PMC5539077, “Functional Characterization of a Missing Branch Component in Haematococcus pluvialis for Control of Algal Carotenoid Biosynthesis” (Frontiers in Plant Science, 2017)
